Assay results: patent US11013725B2, “Therapeutic agents for inner ear hearing impairment” (Keio University, priority 2015, dated 2021)

Columns and labels:
[1] = tested on: inner ear cells derived from iPS cells of patients with Pendred syndrome; assay: Apoptosis under epoxomicin cellular stress (Cleaved caspase 3 staining of pendrin-positive cells); type: cell-based, human
Description: Pendrin-positive cells were induced from iPS cells derived from patients and iPS/ES cells derived from healthy subjects using the above method. The differentiation-induced cells were subjected to the following treatment. In the rapamycin administration group, rapamycin was administered for 3 days. In the cellular stress/rapamycin group, rapamycin (0.2 nM) was administered for 2 days and then epoxomicin (0.5 μM) was administered as cellular stress for 24 hours along with rapamycin. In the cellular stress group, DMSO was administered for 2 days and then only epoxomicin (0.5 μM) was administered as cellular stress for 24 hours. For fluorescent antibody staining, goat anti-pendrin antibody and rabbit anti-Cleaved Caspase 3 antibody were added (1:100 and 1:300, respectively) to the fixed cells on glass slides after antigen retrieval. Cell nuclei were then stained with Hoechst 33258 (diluted 1:1000). […] Pendrin-positive cells were induced from iPS cells derived from patients and iPS/ES cells derived from healthy subjects using the above method. The differentiation-induced cells were subjected to the following. In the rapamycin administration group, rapamycin was administered for 3 days. In the cellular stress/rapamycin group, rapamycin (0.2 nM) was administered for 2 days and then epoxomicin (0.5 μM) was administered as cellular stress for 24 hours along with rapamycin. In the cellular stress group, DMSO was administered for 2 days and then only epoxomicin (0.5 μM) was administered as cellular stress for 24 hours. […] For fluorescent antibody staining, goat anti-pendrin antibody and rabbit anti-Cleaved Caspase 3 antibody were added (1:100 and 1:300, respectively) to the fixed cells on glass slides after antigen retrieval. Cell nuclei were then stained with Hoechst 33258 (diluted 1:1000). […] Pendrin-positive cells were induced from iPS cells derived from patients and iPS/ES cells derived from healthy subjects using the above method. The differentiation-induced cells were subjected to the following treatment. In the calpeptin administration group, calpeptin was administered for 3 days. […]

[2] = tested on: neurons; details: stated as known; cited from earlier work
[3] = tested on: inner ear cells derived from iPS cells of patients with Pendred syndrome; assay: Measurement of cell viability under epoxomicin cellular stress (count of cells positive for pendrin but negative for Cleaved caspase 3); type: cell-based, human
Description: Pendrin-positive cells were induced from iPS cells derived from patients and iPS/ES cells derived from healthy subjects using the above method. The differentiation-induced cells were subjected to the following treatment. In the rapamycin administration group, rapamycin was administered for 3 days. In the cellular stress/rapamycin group, rapamycin (0.2 nM) was administered for 2 days and then epoxomicin (0.5 μM) was administered as cellular stress for 24 hours along with rapamycin. In the cellular stress group, DMSO was administered for 2 days and then only epoxomicin (0.5 μM) was administered as cellular stress for 24 hours. For fluorescent antibody staining, goat anti-pendrin antibody and rabbit anti-Cleaved Caspase 3 antibody were added (1:100 and 1:300, respectively) to the fixed cells on glass slides after antigen retrieval. Cell nuclei were then stained with Hoechst 33258 (diluted 1:1000). […] Pendrin-positive cells were induced from iPS cells derived from patients and iPS/ES cells derived from healthy subjects using the above method. The differentiation-induced cells were subjected to the following treatment. In the rapamycin administration group, rapamycin was administered for 3 days. In the cellular stress/rapamycin group, rapamycin (0.2 nM) was administered for 2 days and then epoxomicin (0.5 μM) was administered as cellular stress for 24 hours along with rapamycin. […]

[4] = tested on: differentiation-induced inner ear sensory epithelial cells; assay: Administration of gentamicin to differentiation-induced inner ear sensory epithelial cells (cytotoxicity, number of cells); type: cell-based, human; details: gentamicin injection diluted 80 times, administered for 10 days; FIG. 7
Description: (1-5) Administration of Gentamicin Known to Have Inner Ear Toxicity to Differentiation-Induced Inner Ear Sensory Epithelial Cells
A gentamicin injection diluted 80 times was administered for 10 days to the inner ear sensory epithelial cells whose differentiation had been induced using this method.

CCCC[C@@H](C=O)NC(=O)[C@H](CC(C)C)NC(=O)OCc1ccccc1 [Calpeptin]
apoptosis when cells are stressed ([1]; calpeptin 0.5 nM for 2 days, then epoxomicin 0.5 μM for 24 hours along with calpeptin, FIG. 14, reference example): cannot inhibit apoptosis
apoptosis of neurons in neurodegenerative diseases and the like [2]: known to inhibit apoptosis of neurons

CN(C)C(=N)NC(=N)N [metformin]
decrease in the cell viability when cells are stressed ([3]; 1 mM or 10 mM metformin for 2 days, then epoxomicin 0.5 μM for 24 hours along with metformin, FIG. 12): suppresses the decrease in the cell viability
apoptosis when cells are stressed ([1]; 1 mM or 10 mM metformin for 2 days, then epoxomicin 0.5 μM for 24 hours along with metformin, FIG. 13): inhibits apoptosis

CO[C@H]1C[C@@H]2CC[C@@H](C)[C@@](O)(O2)C(=O)C(=O)N2CCCC[C@H]2C(=O)O[C@H]([C@H](C)C[C@@H]2CC[C@@H](O)[C@H](OC)C2)CC(=O)[C@H](C)/C=C(\C)[C@@H](O)[C@@H](OC)C(=O)[C@H](C)C[C@H](C)/C=C/C=C/C=C/1C [rapamycin]
decrease in cell viabilities when cells are stressed ([3]; rapamycin 0.2 nM for 2 days, then epoxomicin 0.5 μM for 24 hours along with rapamycin, FIG. 10): suppresses decrease in cell viabilities
apoptosis when cells are stressed (cells positive for pendrin and Cleaved caspase 3) ([1]; rapamycin 0.2 nM for 2 days, then epoxomicin 0.5 μM for 24 hours along with rapamycin, FIG. 11): inhibits such apoptosis

gentamicin
number of cells as compared with a control group (cytotoxicity) [4]: significantly decreased
